# Source: US7345049B2, “Phenylalanine derivatives” (Ajinomoto Co., Inc., priority 2003, dated 2008)
# Biological target: T1, VCAM-1/α4β1 integrin binding (Homo sapiens, UniProt P05556+P13612)
# T1 construct: Jurkat (ATCC TIB-152), known to express integrin α4β1; endogenous in cells; host or cells: Jurkat (ATCC TIB-152)
# Experiment: Assay of antagonistic activity to VCAM-1/α4β1 integrin binding under the existence of blood serum (Jurkat cell adhesion to VCAM-1/Fc)
# Format: cell-based
# Conditions: Jurkat cells, recombinant human VCAM-1/Fc, 50% human blood serum
# Description: Assay of Antagonistic Activity to VCAM-1/α4β1 Integrin Binding Under the Existence of Blood Serum
# The capacity of a test substance antagonistic to the binding of cell strain of human T cells, Jurkat (ATCC TIB-152), known to express integrin α4β1, to VCAM-1 was determined.
# Fifty μl/well of a solution (500 ng/ml) of recombinant human VCAM-1/Fc (R & D systems) diluted with buffer A (0.1 M NaHCO3, pH 9.6) was added to a 96-well microtiter plate (Nunc Maxisorp). After the incubation at 4° C. overnight and washing once with PBS, a buffer (buffer B) obtained by diluting Block Ace (Snow Brand Milk Products Co., Ltd.) with PBS to ½ concentration was added in an amount of 150 μl/well. After the incubation at room temperature for 2 hours, buffer B was removed and the plate was washed with PBS once.
# Jurkat cells were washed with Dulbecco modified Eagle medium (SIGMA, hereinafter referred to as “DMEM”) once. Then, the cells were again suspended in a binding buffer (DMEM containing 20 mM HEPES, 0.1% BSA, 2 mM MnCl2 and 50% human blood serum (Sigma)) to become 1×10^6 cells/mL.
# Sixty μl of a test substance of various concentrations obtained by the dilution with the binding buffer was added to a round-bottom, 96-well plate (IWAKI). Immediately thereafter, 60 μl of the Jurkat cells (1×10^6 cells/ml) were added thereto and shaken on a plate shaker (IKA-Labortechnik, IKA-SCHUTTLER MTS-4) at 1000 rpm for 10 seconds. In 120 μL of the cell suspension to which the test substance was added, each 100 μL thereof was transferred on the VCAM-1/Fc-coated plate and incubated in dark place at room temperature for 60 minutes. After the shaking on the plate shaker at 1000 rpm for 30 seconds, the solution was immediately removed. Then, the unbound cells were removed by washing them with PBS once. A buffer C (PBS containing 0.82% Triton X-100) was added to the plate in an amount of 70 μL/well. After the shaking on the plate shaker at 1000 rpm for 5 minutes, the bound Jurkat cells were lysed. After centrifuging the cells on a plate centrifuge (SIGMA 4-15C) at room temperature at 2500 rpm for 5 minutes, 50 μL of supernatant thereof was transferred to a 96-well microtiter plate (Nunc Maxisorp). Each 50 μL of Substrate Buffer (Promega, CytoTox 96 Non-Radioactive Cytotoxicity Assay) was added thereto, shaken on a plate shaker at 1000 rpm for 10 seconds and reacted in dark place at room temperature for 30 minutes. Then, each 50 μL of Stop Solution (Promega, CytoTox 96 Non-Radioactive Cytotoxicity Assay) was added thereto and shaken on a plate shaker at 1000 rpm for 10 seconds. […] The absorbance thus obtained detects an activity of lactate dehydrogenase (LDH) dissolved in the supernatant of each well. Namely, the absorbance is proportional to the number of remaining Jurkat cells on the plate via the binding to VCAM-1. The test was conducted in duplicate and the binding rate of each test substance in various concentrations was determined while the absorbance of the test substance-free well was determined to be 100% and the absorbance of the Jurkat-cell-free well was determined to be 0%. The concentration for the 50% inhibition of binding, IC50, was calculated.
# T1 sequence (P13612 34-1032): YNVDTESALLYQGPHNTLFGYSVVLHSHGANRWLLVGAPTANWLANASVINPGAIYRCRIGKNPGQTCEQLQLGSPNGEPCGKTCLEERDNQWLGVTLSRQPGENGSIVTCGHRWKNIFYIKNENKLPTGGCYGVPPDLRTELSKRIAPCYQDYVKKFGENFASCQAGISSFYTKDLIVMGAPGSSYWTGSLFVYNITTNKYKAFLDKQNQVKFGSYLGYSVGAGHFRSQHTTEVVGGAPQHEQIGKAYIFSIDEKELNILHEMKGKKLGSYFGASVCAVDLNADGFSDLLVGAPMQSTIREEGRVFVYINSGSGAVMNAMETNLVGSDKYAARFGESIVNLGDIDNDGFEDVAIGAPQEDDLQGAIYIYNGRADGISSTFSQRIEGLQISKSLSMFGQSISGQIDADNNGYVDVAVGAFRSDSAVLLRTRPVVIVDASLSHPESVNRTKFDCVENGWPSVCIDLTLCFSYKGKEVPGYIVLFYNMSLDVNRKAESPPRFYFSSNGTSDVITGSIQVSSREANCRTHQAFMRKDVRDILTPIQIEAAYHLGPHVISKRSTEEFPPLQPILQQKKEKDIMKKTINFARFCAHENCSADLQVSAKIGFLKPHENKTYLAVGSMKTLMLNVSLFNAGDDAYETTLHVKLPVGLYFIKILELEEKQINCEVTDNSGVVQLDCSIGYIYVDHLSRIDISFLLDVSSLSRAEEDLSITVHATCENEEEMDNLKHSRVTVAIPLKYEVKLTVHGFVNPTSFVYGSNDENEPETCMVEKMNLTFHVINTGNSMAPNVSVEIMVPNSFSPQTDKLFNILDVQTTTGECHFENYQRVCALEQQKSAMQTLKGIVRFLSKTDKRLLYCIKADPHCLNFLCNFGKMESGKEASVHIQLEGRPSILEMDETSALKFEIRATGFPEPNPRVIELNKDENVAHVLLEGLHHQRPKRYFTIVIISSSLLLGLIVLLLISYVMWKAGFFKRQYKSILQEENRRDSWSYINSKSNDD
# T1 sequence (P05556 21-798): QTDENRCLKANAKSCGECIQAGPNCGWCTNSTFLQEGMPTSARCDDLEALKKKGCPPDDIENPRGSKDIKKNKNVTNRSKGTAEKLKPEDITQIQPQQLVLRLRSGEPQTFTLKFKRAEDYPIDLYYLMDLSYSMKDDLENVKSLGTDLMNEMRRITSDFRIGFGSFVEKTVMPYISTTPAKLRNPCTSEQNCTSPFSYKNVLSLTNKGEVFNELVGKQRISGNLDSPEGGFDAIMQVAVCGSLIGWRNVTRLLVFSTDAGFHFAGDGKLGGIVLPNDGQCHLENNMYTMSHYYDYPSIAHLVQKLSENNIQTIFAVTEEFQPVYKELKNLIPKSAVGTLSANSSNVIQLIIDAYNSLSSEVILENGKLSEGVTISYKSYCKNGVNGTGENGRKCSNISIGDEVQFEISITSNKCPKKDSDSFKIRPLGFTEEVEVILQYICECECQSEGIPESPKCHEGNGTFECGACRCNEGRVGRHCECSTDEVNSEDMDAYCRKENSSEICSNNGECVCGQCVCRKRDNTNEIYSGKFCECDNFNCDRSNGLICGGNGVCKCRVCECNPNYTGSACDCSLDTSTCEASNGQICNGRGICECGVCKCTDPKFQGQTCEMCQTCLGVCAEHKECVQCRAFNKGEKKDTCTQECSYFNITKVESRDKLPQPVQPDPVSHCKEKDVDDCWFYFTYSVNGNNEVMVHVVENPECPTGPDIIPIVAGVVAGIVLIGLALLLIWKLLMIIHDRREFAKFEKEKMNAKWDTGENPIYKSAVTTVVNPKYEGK
row,Compound,IC50 [nM]
1,CCNCCCc1ccc2c(c1)c(=O)n(-c1ccc(C[C@H](NC(=O)c3c(Cl)cccc3Cl)C(=O)O)cc1)c(=O)n2C [Example 208],13.4
2,CCCNCCCc1ccc2c(c1)c(=O)n(-c1ccc(C[C@H](NC(=O)c3c(Cl)cccc3Cl)C(=O)O)cc1)c(=O)n2C [Example 209],15.2
3,CNCCCOc1ccc2c(c1)c(=O)n(-c1ccc(C[C@H](NC(=O)c3c(Cl)cccc3Cl)C(=O)O)cc1)c(=O)n2C [Example 226],9.2
4,"CNCCc1cc2c(=O)n(-c3ccc(C[C@H](NC(=O)c4c(Cl)cccc4Cl)C(=O)O)cc3)c(=O)n(C)c2cc1F [Example 229, N-(2,6-dichlorobenzoyl)-4-{7-fluoro-1-methyl-6-[2-(methylamino)ethyl]-2,4-dioxo-1,2,3,4-tetrahydroquinazoline-3(2H)-yl}-L-phenylalanine]",14.7
5,"CNCCc1ccc2c(c1)c(=O)n(-c1ccc(C[C@H](NC(=O)c3c(Cl)cccc3Cl)C(=O)O)cc1)c(=O)n2C [Example 230, N-(2,6-dichlorobenzoyl)-4-{1-methyl-6-[2-(methylamino)ethyl]-2,4-dioxo-1,2,3,4-tetrahydroquinazoline-3(2H)-yl}-L-phenylalanine]",11.7
6,"N-(2,6-dichlorobenzoyl)-4-[6-((2S)-2-aminopropoxy)-1-methyl-2,4-quinazoline-dione-3-yl]-L-phenylalanine isopropylester [Example 141]",12.2

# Test system: lymphocytes in the peripheral blood
# Experiment: Activity to elevate the number of lymphocytes in the peripheral blood in a rat
# Format: in vivo, male Wistar rat
# Conditions: oral, 3 mg/kg, 1 hour later, criterion 195% or more of vehicle group
# Description: Activity to Elevate the Number of Lymphocytes in the Peripheral Blood in a Rat
# The activity of the compounds of the present invention to elevate the number of lymphocytes in the rat was examined.
# A dosing solution was prepared by dissolving the compounds of the present invention to dimethylsulfoxide, adding the mixed solution of polyethylene glycol 400: propylene glycol=1:1 and turning it upside and down repeatedly. The final concentration of DMSO was adjusted to become 2.5%.
# The dosing solution of a test substance (3 mg/kg, 10 mg/kg or 30 mg/kg) was orally administered to a male Wistar rat (6 to 8 weeks age) in an amount of 4 mL/kg. After the settled time points after the administration, the blood was drawn from its abdominal large vein under anesthesia and stirred in a EDTA-2K coated container for blood collection. Then, the number of lymphocytes in the peripheral blood was determined by an automated comprehensive hematology analyzer (SF-3000, Sysmex). The test was executed in n=5, and the ratio (%) of the number of lymphocytes in the peripheral blood in a test-substance-administered group to that in a vehicle-treated group (a control group) was calculated while the average value of the number of lymphocytes in the peripheral blood in a control group was determined to be 100%.
row,Compound,"Elevation of lymphocytes in the peripheral blood, pass/failure"
1,"COC(=O)[C@H](Cc1ccc(-n2c(=O)c3cncnc3n(C)c2=O)cc1)NC(=O)c1c(Cl)cccc1Cl [Example 129, N-(2,6-dichlorobenzoyl)-4-(1-methyl-2,4-dioxo-1,2,3,4-tetrahydropyrimido[4,5-d]pyrimidine-3(2H)-yl)-L-phenylalanine methylester]",◯ (pass (criterion measure or more))

# Same assay, conditions: oral, 10 mg/kg, 6 hours later, criterion 150% or more of vehicle group
row,Compound,"Elevation of lymphocytes in the peripheral blood, pass/failure"
1,"CCNCc1ccc2c(=O)n(-c3ccc(C[C@H](NC(=O)c4c(Cl)cccc4Cl)C(=O)OC(C)C)cc3)c(=O)n(C)c2c1 [Example 156, N-(2,6-dichlorobenzoyl)-4-[7-ethylaminomethyl-1-methyl-2,4-quinazoline-dione-3-yl]-L-phenylalanine isopropylester]",◯ (pass (criterion measure or more))
2,"CNCc1ccc2c(=O)n(-c3ccc(C[C@H](NC(=O)c4c(Cl)cccc4Cl)C(=O)OC4CCCC4)cc3)c(=O)n(C)c2c1 [Example 157, N-(2,6-dichlorobenzoyl)-4-[7-methylaminomethyl-1-methyl-2,4-quinazoline-dione-3-yl]-L-phenylalanine cyclopentylester]",◯ (pass (criterion measure or more))
3,"CNCc1ccc2c(=O)n(-c3ccc(C[C@H](NC(=O)c4c(Cl)cccc4Cl)C(=O)OCC(C)C)cc3)c(=O)n(C)c2c1 [Example 158, N-(2,6-dichlorobenzoyl)-4-[7-methylaminomethyl-1-methyl-2,4-quinazoline-dione-3-yl]-L-phenylalanine isobutylester]",◯ (pass (criterion measure or more))
4,"CCCNCc1ccc2c(=O)n(-c3ccc(C[C@H](NC(=O)c4c(Cl)cccc4Cl)C(=O)OC(C)C)cc3)c(=O)n(C)c2c1 [Example 159, N-(2,6-dichlorobenzoyl)-4-[1-methyl-7-propylaminomethyl-2,4-quinazoline-dione-3-yl]-L-phenylalanine isopropylester]",◯ (pass (criterion measure or more))

# Same assay, conditions: oral, 30 mg/kg, 12 hours later, criterion 150% or more of vehicle group
row,Compound,"Elevation of lymphocytes in the peripheral blood, pass/failure"
1,"CC(C)OC(=O)[C@H](Cc1ccc(-n2c(=O)c3cc(OCCN(C)C)ccc3n(C)c2=O)cc1)NC(=O)c1c(Cl)cccc1Cl [Example 155, N-(2,6-dichlorobenzoyl)-4-[6-(2-dimethylaminoethoxy)-1-methyl-2,4-quinazoline-dione-3-yl]-L-phenylalanine isopropylester]",◯ (pass (criterion measure or more))
2,"CC(C)OC(=O)[C@H](Cc1ccc(-n2c(=O)c3cc(CN)ccc3n(C)c2=O)cc1)NC(=O)c1c(Cl)cccc1Cl [Example 174, Isopropyl (2S)-3-[4-(6-(aminomethyl)-1-methyl-2,4-dioxo-1,2,3,4-tetrahydro-3(2H)-quinazolinyl)phenyl]-2-[(2,6-dichlorobenzoyl)amino]propanoate]",◯ (pass (criterion measure or more))
3,"CNCc1cc2c(=O)n(-c3ccc(C[C@H](NC(=O)c4c(Cl)cccc4Cl)C(=O)OC(C)C)cc3)c(=O)n(C)c2cc1F [Example 184, Isopropyl (2S)-2-[(2,6-dichlorobenzoyl)amino]-3-[4-(7-fluoro-1-methyl-6-[(methylamino)methyl]-2,4-dioxo-1,2,3,4-tetrahydro-3(2H)-quinazolinyl)phenyl]propanoate]",◯ (pass (criterion measure or more))
4,"CNCc1ccc2c(c1)c(=O)n(-c1ccc(C[C@H](NC(=O)c3c(C)cccc3Cl)C(=O)OC(C)C)cc1)c(=O)n2C [Example 187, Isopropyl (2S)-2-[(2-chloro-6-methylbenzoyl)amino]-3-[4-(1-methyl-6-[(methylamino)methyl]-2,4-dioxo-1,2,3,4-tetrahydro-3(2H)-quinazolinyl)phenyl]propanoate]",◯ (pass (criterion measure or more))
5,"CNCCc1cc2c(=O)n(-c3ccc(C[C@H](NC(=O)c4c(Cl)cccc4Cl)C(=O)OC(C)C)cc3)c(=O)n(C)c2cc1F [Example 228, N-(2,6-dichlorobenzoyl)-4-{7-fluoro-1-methyl-6-[2-(methylamino)ethyl]-2,4-dioxo-1,2,3,4-tetrahydroquinazoline-3(2H)-yl}-L-phenylalanine isopropylester]",◯ (pass (criterion measure or more))
6,"CC(C)OC(=O)[C@H](Cc1ccc(-n2c(=O)c3cc(CO)ccc3n(C)c2=O)cc1)NC(=O)c1c(Cl)cccc1Cl [Example 234, N-(2,6-dichlorobenzoyl)-4-[6-(hydroxymethyl)-1-methyl-2,4-dioxo-1,2,3,4-tetrahydroquinazoline-3-(2H)-yl]-L-phenylalanine isopropylester]",◯ (pass (criterion measure or more))
